Source: ChEMBL document CHEMBL5291721, “A preclinical secondary pharmacology resource illuminates target-adverse drug reaction associations of marketed drugs” (Nat Commun, 2023)

Legend:
[1] = molecular target: Gamma-aminobutyric acid receptor subunit alpha-1 (Rattus norvegicus, UniProt P62813)
[2] = molecular target: T1, Alpha-2C adrenergic receptor (Homo sapiens, UniProt P18825); type: functional
T1 sequence (P18825 whole entry): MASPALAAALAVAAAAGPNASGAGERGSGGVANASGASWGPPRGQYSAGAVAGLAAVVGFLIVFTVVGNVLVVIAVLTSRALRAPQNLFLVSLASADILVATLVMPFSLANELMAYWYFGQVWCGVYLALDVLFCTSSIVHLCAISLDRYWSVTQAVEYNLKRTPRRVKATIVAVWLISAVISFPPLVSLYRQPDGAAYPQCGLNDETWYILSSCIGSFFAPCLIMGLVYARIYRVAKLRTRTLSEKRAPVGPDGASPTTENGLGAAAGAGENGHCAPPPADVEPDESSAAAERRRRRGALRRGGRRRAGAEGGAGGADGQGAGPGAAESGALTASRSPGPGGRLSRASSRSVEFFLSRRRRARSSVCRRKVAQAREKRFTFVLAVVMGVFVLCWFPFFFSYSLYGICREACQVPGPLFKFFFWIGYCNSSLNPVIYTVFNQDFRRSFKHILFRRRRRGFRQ

[3] = molecular target: Kappa-type opioid receptor (Homo sapiens, UniProt P41145)
Sequence of Kappa-type opioid receptor (P41145 whole entry): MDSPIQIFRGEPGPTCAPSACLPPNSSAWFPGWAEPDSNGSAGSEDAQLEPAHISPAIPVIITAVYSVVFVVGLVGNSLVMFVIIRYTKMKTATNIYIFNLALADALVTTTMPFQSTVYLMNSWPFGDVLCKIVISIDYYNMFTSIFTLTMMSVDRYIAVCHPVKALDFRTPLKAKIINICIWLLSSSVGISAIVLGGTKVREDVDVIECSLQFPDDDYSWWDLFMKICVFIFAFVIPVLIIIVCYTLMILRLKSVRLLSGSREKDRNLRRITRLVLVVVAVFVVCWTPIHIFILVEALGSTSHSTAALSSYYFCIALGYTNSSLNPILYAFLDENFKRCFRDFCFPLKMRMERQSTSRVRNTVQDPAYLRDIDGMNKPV

[4] = molecular target: T2, Alpha-1A adrenergic receptor (Homo sapiens, UniProt P35348); type: functional, cell-based
T2 sequence (P35348 whole entry): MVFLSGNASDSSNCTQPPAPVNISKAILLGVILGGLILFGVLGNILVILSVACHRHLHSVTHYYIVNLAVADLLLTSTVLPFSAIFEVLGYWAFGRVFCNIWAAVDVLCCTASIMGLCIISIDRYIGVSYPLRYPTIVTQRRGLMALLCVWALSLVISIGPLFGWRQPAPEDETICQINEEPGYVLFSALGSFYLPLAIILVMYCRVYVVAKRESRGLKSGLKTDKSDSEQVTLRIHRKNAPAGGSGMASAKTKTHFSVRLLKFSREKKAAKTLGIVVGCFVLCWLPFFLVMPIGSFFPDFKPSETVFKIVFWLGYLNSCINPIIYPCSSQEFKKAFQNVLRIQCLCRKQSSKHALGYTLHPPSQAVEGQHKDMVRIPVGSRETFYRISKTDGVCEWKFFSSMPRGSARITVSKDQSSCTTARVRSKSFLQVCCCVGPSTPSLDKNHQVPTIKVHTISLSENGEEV

[5] = molecular target: D(3) dopamine receptor (Homo sapiens, UniProt P35462)
Sequence of D(3) dopamine receptor (P35462 whole entry): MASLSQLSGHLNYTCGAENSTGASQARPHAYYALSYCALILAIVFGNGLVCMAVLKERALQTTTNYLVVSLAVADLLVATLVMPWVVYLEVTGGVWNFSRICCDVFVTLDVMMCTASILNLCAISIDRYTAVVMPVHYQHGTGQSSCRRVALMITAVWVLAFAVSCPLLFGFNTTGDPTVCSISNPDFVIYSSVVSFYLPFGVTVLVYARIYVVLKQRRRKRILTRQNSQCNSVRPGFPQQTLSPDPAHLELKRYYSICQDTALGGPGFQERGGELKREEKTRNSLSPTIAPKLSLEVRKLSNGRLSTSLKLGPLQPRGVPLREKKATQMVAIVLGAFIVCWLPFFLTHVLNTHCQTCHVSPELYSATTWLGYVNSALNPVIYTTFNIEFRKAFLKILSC

[6] = molecular target: T3, Amine oxidase [flavin-containing] A (Homo sapiens, UniProt P21397); type: functional
T3 sequence (P21397 whole entry): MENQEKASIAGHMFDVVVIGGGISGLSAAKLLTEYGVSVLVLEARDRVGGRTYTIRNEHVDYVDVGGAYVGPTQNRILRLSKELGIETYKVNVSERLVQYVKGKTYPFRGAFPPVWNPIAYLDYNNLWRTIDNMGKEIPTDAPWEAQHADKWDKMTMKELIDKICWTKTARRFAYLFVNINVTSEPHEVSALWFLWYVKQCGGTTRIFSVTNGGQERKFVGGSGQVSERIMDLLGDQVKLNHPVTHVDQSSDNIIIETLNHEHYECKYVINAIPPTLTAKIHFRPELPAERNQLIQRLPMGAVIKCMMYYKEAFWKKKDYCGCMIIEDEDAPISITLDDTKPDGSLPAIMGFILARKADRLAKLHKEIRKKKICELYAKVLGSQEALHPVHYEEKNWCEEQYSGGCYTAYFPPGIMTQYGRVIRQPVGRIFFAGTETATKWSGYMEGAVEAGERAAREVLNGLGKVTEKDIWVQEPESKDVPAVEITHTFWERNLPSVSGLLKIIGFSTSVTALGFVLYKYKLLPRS

[7] = molecular target: Delta-type opioid receptor (Homo sapiens, UniProt P41143)
Sequence of Delta-type opioid receptor (P41143 whole entry): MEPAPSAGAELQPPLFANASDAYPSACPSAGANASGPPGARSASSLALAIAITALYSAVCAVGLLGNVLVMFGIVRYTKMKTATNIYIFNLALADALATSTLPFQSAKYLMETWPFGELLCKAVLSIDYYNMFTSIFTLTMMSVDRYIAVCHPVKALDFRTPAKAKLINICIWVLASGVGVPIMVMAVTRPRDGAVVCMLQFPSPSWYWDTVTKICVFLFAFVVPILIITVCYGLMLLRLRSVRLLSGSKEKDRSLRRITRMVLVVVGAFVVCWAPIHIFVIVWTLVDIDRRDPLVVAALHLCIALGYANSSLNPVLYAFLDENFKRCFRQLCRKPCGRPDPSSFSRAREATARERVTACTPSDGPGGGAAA

[8] = molecular target: T4, Neuropeptide Y receptor type 1 (Homo sapiens, UniProt P25929)
T4 sequence (P25929 whole entry): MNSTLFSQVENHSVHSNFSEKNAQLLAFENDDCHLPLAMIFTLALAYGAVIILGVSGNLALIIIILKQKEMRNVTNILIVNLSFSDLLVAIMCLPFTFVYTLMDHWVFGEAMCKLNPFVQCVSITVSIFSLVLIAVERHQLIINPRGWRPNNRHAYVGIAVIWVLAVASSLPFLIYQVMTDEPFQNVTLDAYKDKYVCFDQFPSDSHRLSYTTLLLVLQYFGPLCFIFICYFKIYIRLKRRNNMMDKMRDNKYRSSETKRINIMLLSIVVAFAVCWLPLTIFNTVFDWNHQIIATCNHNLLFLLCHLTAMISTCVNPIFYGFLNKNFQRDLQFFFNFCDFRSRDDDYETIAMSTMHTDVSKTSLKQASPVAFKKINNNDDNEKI

[9] = molecular target: T5, 5-hydroxytryptamine receptor 1A (Homo sapiens, UniProt P08908); type: functional, cell-based
T5 sequence (P08908 whole entry): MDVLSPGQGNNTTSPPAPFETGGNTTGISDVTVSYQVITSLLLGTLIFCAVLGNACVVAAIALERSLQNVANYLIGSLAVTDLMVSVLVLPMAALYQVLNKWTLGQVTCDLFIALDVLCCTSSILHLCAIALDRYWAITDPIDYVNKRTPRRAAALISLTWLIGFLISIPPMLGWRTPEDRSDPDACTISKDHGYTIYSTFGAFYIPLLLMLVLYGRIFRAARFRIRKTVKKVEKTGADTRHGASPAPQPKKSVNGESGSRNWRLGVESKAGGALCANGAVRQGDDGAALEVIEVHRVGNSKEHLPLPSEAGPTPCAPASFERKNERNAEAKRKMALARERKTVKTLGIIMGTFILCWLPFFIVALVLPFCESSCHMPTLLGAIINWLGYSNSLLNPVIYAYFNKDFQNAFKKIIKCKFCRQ
Also: assay procedure not described here.

Sequence of Gamma-aminobutyric acid receptor subunit alpha-1 (P62813 whole entry): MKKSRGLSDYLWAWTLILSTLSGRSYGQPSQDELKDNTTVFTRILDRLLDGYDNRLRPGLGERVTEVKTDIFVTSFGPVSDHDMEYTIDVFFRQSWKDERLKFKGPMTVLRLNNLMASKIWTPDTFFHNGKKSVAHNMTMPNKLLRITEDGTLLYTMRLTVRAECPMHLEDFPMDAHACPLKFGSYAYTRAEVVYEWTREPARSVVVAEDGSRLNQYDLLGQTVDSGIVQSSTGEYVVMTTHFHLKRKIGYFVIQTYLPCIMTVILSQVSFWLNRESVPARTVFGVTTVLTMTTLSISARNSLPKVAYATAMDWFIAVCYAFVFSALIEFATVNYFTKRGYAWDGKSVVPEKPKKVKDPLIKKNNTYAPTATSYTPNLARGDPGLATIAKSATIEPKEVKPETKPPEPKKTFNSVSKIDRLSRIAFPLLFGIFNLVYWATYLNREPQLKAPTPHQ

Compound | AC50 [1] [µM] | AC50 [2] [µM] | AC50 [3] [µM] | AC50 [4] [µM] | AC50 [5] [µM] | AC50 [6] [µM] | AC50 [7] [µM] | AC50 [8] [µM] | AC50 [9] [µM]
CN1CCCN=C1/C=C/c1cccc(O)c1 [OXANTEL] | > 30 | > 30 | 20 | > 30 | > 30 | 21 | > 30 | > 30 | > 30
O=C(O)c1nn(Cc2ccc(Cl)cc2Cl)c2ccccc12 [LONIDAMINE] |  | > 30 | > 30 | > 30 | > 30 | > 30 | > 30 | > 30 | > 30
CS(=O)(=O)NC(=O)CCC/C=C\C[C@H]1C(=O)C[C@@H](O)[C@@H]1/C=C/[C@@H](O)COc1ccccc1 [SULPROSTONE] | > 30 | > 30 | > 30 | > 30 | > 30 | > 30 | > 30 | > 30 | > 30
CCN(CC)CC(=O)Nc1c(C)cccc1C [LIDOCAINE] |  |  |  |  |  |  |  | > 30 | 
CC(=O)OCC1=C(C(=O)O)N2C(=O)[C@@H](NC(=O)Cc3cccs3)[C@H]2SC1 [CEPHALOTHIN] |  | > 30 | > 30 | > 30 | > 30 | > 30 | > 30 | > 30 | > 30
CCCCCCCC(=O)CC[C@@H]1[C@@H](C/C=C\CCCC(=O)O)[C@@H](O)C[C@H]1O [UNOPROSTONE] | > 30 | > 30 | > 30 | > 30 | > 30 | > 30 | > 30 | > 30 | > 30
COc1nc(C)nc(Cl)c1N=C1NCCN1 [MOXONIDINE] | > 30 |  | > 30 | 0.09 | > 30 | > 30 | > 30 | > 30 | > 30
OCCN(CCO)c1nc(N2CCCCC2)c2nc(N(CCO)CCO)nc(N3CCCCC3)c2n1 [DIPYRIDAMOLE] | > 30 | > 30 | > 30 | 3.5 | > 30 | > 30 | > 30 | > 30 | > 10
CCN1C(=O)NC(c2ccccc2)C1=O (centres undefined) [ETHOTOIN] |  | > 30 | > 30 | > 30 | > 30 | > 30 | > 30 | > 30 | > 30
CC1=C(C(=O)O)N2C(=O)[C@@H](NC(=O)[C@H](N)C3=CCC=CC3)[C@H]2SC1 [CEPHRADINE] |  | > 30 | > 30 | > 30 | > 30 | > 30 | > 30 | > 30 | 
CCCCC[C@H](O)CC[C@@H]1[C@H]2Cc3cccc(OCC(=O)O)c3C[C@H]2C[C@H]1O [TREPROSTINIL] | > 30 | > 30 | > 30 | > 30 | > 30 | > 30 | > 30 | > 30 | > 30
COC(=O)c1ccc2c(c1)NC(=O)/C2=C(\Nc1ccc(N(C)C(=O)CN2CCN(C)CC2)cc1)c1ccccc1 [NINTEDANIB] | > 30 | > 30 | > 30 | > 30 | > 30 | > 30 | > 30 | > 30 | 
O=C(O)CCCC[C@@H]1SC[C@@H]2NC(=O)N[C@@H]21 [BIOTIN] |  | > 10 | > 10 |  | > 30 | > 10 | > 30 | > 10 | > 10
CCC(=O)O[C@H](CC(=O)O)C[N+](C)(C)C [LEVOCARNITINE PROPIONATE] | > 30 | > 30 | > 30 | > 30 | > 30 | > 30 | > 30 | > 30 | > 30
